# Assay results: patent US10858356B2, “Pyrazolopyridine derivative having GLP-1 receptor agonist effect” (Chugai Seiyaku Kabushiki Kaisha, priority 2016, dated 2020)
# Target: human GLP1R (Homo sapiens (Human), UniProt P43220)
# Assay: In vitro cAMP signal activation in human GLP1R stably-expressing cell line (hGLP1R-HEK293)
# Type: cell-based
# Settings: cAMP concentration in hGLP1R-HEK293; 100% = 1 nM human GLP-1 (7-37)
# Method: <Test Example 1> Measurement of In Vitro cAMP Signal Activation of a Compound in Human GLP1R
# A human GLP1R stably-expressing cell line (hGLP1R-HEK293) was used in the experiment. The cells were cultured in a Dulbecco's modified Eagle's medium (DMEM) containing 10% fetal bovine serum (Sigma-Aldrich), 100 units/mL penicillin G and 100 μg/mL streptomycin sulfate (Gibco), and 500 μg/mL Geneticin (Gibco), under a moist atmosphere containing 5% CO2, at 37° C.
# hGLP1R-HEK293 was seeded in 96 well plates at 2.0×10^4 cells per well and cultured over night. The medium for culturing the cells was changed to 50 μL of Medium A (DMEM, 20 mM HEPES, 0.05% BSA, 0.5 mM 3-isobutyl-1-methylxanthine) the next day, and the cells were incubated at 37° C. for 30 min. Then, 50 μL of Medium B (DMEM, 20 mM HEPES, 0.05% BSA, 0.5 mM 3-isobutyl-1-methylxanthine) containing GLP-1 or the compound was added, and the cells were incubated at 37° C. for an additional 30 min. Then, 100 μL of Assay lysis buffer (Applied Bioscience) was added, and the cells were incubated at 37° C. for 30 min. The cAMP concentration was quantified using cAMP HiRange kit (Cisbio Bioassays).
# By setting the cAMP concentration when the human GLP-1 (7-37) was put into action at a concentration of 1 nM to 100%, the cAMP concentration of each well was converted to a reaction rate (%).
# Chain of human GLP1R (P43220 24-463): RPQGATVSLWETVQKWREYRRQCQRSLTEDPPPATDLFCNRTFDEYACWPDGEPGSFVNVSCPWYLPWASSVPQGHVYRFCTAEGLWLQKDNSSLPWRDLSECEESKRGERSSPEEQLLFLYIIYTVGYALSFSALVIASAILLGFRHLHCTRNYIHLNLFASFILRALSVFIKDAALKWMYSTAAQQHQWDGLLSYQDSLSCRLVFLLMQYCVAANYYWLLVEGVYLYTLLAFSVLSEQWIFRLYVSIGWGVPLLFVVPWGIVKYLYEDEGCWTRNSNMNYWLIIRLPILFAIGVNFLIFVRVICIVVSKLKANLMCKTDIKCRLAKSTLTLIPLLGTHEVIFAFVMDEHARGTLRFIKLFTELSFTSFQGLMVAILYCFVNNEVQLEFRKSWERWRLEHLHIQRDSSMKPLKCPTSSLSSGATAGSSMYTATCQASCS
row,SMILES,EC50 [nM]
1,"Cc1cc(-n2nc3c(c2-n2ccn(-c4ccc5c(cnn5[C@H]5CCOC5)c4)c2=O)[C@H](C)N(C(=O)c2cc4cc(-c5ccnc(C)c5F)ccc4n2[C@@]2(c4noc(=O)[nH]4)C[C@@H]2C)CC3)cc(C)c1F [Example 14, 3-[(1S,2S)-1-[2-[(4S)-2-(4-fluoro-3,5-dimethylphenyl)-4-methyl-3-[2-oxo-3-[1-[(3S)-oxolan-3-yl]indazol-5-yl]imidazol-1-yl]-6,7-dihydro-4H-pyrazolo[4,3-c]pyridine-5-carbonyl]-5-(3-fluoro-2-methylpyridin-4-yl)indol-1-yl]-2-methylcyclopropyl]-4H-1,2,4-oxadiazol-5-one]",2.3
2,"Cc1cc(-n2nc3c(c2-n2ccn(-c4ccc5c(cnn5C)c4)c2=O)[C@H](C)N(C(=O)c2cc4cc(-c5ccnc(N(C)C)c5C)ccc4n2[C@@]2(c4noc(=O)[nH]4)C[C@@H]2C)CC3)cc(C)c1F [Example 15, 3-[(1S,2S)-1-[5-[2-(dimethylamino)-3-methylpyridin-4-yl]-2-[(4S)-2-(4-fluoro-3,5-dimethylphenyl)-4-methyl-3-[3-(1-methylindazol-5-yl)-2-oxoimidazol-1-yl]-6,7-dihydro-4H-pyrazolo[4,3-c]pyridine-5-carbonyl]indol-1-yl]-2-methylcyclopropyl]-4H-1,2,4-oxadiazol-5-one]",2.2
3,"Cc1cc(-n2ccn(-c3c4c(nn3-c3cc(C)c(F)c(C)c3)CCN(C(=O)c3cc5cc(C6CCOCC6)ccc5n3[C@@]3(c5noc(=O)[nH]5)C[C@@H]3C)[C@H]4C)c2=O)ccc1OCCO [Example 19, 3-[(1S,2S)-1-[2-[(4S)-2-(4-fluoro-3,5-dimethylphenyl)-3-[3-[4-(2-hydroxyethoxy)-3-methylphenyl]-2-oxoimidazol-1-yl]-4-methyl-6,7-dihydro-4H-pyrazolo[4,3-c]pyridine-5-carbonyl]-5-(oxan-4-yl)indol-1-yl]-2-methylcyclopropyl]-4H-1,2,4-oxadiazol-5-one]",1.3
4,"COc1cc(-n2ccn(-c3c4c(nn3-c3cc(C)c(F)c(C)c3)CCN(C(=O)c3cc5cc(C6CCOCC6)ccc5n3[C@@]3(c5noc(=O)[nH]5)C[C@@H]3C)[C@H]4C)c2=O)ccc1OC(C)(C)CO [Example 20, 3-[(1S,2S)-1-[2-[(4S)-2-(4-fluoro-3,5-dimethylphenyl)-3-[3-[4-(1-hydroxy-2-methylpropan-2-yl)oxy-3-methoxyphenyl]-2-oxoimidazol-1-yl]-4-methyl-6,7-dihydro-4H-pyrazolo[4,3-c]pyridine-5-carbonyl]-5-(oxan-4-yl)indol-1-yl]-2-methylcyclopropyl]-4H-1,2,4-oxadiazol-5-one]",1.9
5,"Cc1cc(-n2nc3c(c2-n2ccn(-c4ccc5c(c4)CCOC5(C)C)c2=O)[C@H](C)N(C(=O)c2cc4cc(C5CCOCC5)ccc4n2[C@@]2(c4noc(=O)[nH]4)C[C@@H]2C)CC3)cc(C)c1F [Example 24, 3-[(1S,2S)-1-[2-[(4S)-3-[3-(1,1-dimethyl-3,4-dihydroisochromen-6-yl)-2-oxoimidazol-1-yl]-2-(4-fluoro-3,5-dimethylphenyl)-4-methyl-6,7-dihydro-4H-pyrazolo[4,3-c]pyridine-5-carbonyl]-5-(oxan-4-yl)indol-1-yl]-2-methylcyclopropyl]-4H-1,2,4-oxadiazol-5-one]",2.5
6,"Cc1cc(-n2ccn(-c3c4c(nn3-c3cc(C)c(F)c(C)c3)CCN(C(=O)c3cc5cc(C6CCOCC6)ccc5n3[C@@]3(c5noc(=O)[nH]5)C[C@@H]3C)[C@H]4C)c2=O)ccc1-c1cc(N(C)C)ncn1 [Example 25, 3-[(1S,2S)-1-[2-[(4S)-3-[3-[4-[6-(dimethylamino)pyrimidin-4-yl]-3-methylphenyl]-2-oxoimidazol-1-yl]-2-(4-fluoro-3,5-dimethylphenyl)-4-methyl-6,7-dihydro-4H-pyrazolo[4,3-c]pyridine-5-carbonyl]-5-(oxan-4-yl)indol-1-yl]-2-methylcyclopropyl]-4H-1,2,4-oxadiazol-5-one]",4

# Results, then the compound that gave them:
row,EC50 [nM],SMILES
1,0.51,"COCCn1ncc2cc(-n3ccn(-c4c5c(nn4-c4cc(C)c(F)c(C)c4)CCN(C(=O)c4cc6cc(C7CCOCC7)ccc6n4[C@@]4(c6noc(=O)[nH]6)C[C@@H]4C)[C@H]5C)c3=O)ccc21 [Example 16, 3-[(1S,2S)-1-[2-[(4S)-2-(4-fluoro-3,5-dimethylphenyl)-3-[3-[1-(2-methoxyethyl)indazol-5-yl]-2-oxoimidazol-1-yl]-4-methyl-6,7-dihydro-4H-pyrazolo[4,3-c]pyridine-5-carbonyl]-5-(oxan-4-yl)indol-1-yl]-2-methylcyclopropyl]-4H-1,2,4-oxadiazol-5-one]"
2,1,"Cc1cc(-n2nc3c(c2-n2ccn(-c4ccc5c(cnn5CC5(C)COC5)c4)c2=O)[C@H](C)N(C(=O)c2cc4cc(C5CCOCC5)ccc4n2[C@@]2(c4noc(=O)[nH]4)C[C@@H]2C)CC3)cc(C)c1F [Example 17, 3-[(1S,2S)-1-[2-[(4S)-2-(4-fluoro-3,5-dimethylphenyl)-4-methyl-3-[3-[1-[(3-methyloxetan-3-yl)methyl]indazol-5-yl]-2-oxoimidazol-1-yl]-6,7-dihydro-4H-pyrazolo[4,3-c]pyridine-5-carbonyl]-5-(oxan-4-yl)indol-1-yl]-2-methylcyclopropyl]-4H-1,2,4-oxadiazol-5-one]"
3,1.3,"Cc1cc(-n2nc3c(c2-n2ccn(-c4ccc5c(C)nsc5c4)c2=O)[C@H](C)N(C(=O)c2cc4cc(C5CCOCC5)ccc4n2[C@@]2(c4noc(=O)[nH]4)C[C@@H]2C)CC3)cc(C)c1F [Example 18, 3-[(1S,2S)-1-[2-[(4S)-2-(4-fluoro-3,5-dimethylphenyl)-4-methyl-3-[3-(3-methyl-1,2-benzothiazol-6-yl)-2-oxoimidazol-1-yl]-6,7-dihydro-4H-pyrazolo[4,3-c]pyridine-5-carbonyl]-5-(oxan-4-yl)indol-1-yl]-2-methylcyclopropyl]-4H-1,2,4-oxadiazol-5-one]"
4,2.3,"Cc1cc(-n2nc3c(c2-n2ccn(-c4ccc5c(cnn5[C@H]5CCOC5)c4)c2=O)[C@H](C)N(C(=O)c2cc4cc(C5CCOCC5)ccc4n2[C@@]2(c4noc(=O)[nH]4)C[C@@H]2C)CC3)cc(C)c1F [Example 22, 3-[(1S,2S)-1-[2-[(4S)-2-(4-fluoro-3,5-dimethylphenyl)-4-methyl-3-[2-oxo-3-[1-[(3S)-oxolan-3-yl]indazol-5-yl]imidazol-1-yl]-6,7-dihydro-4H-pyrazolo[4,3-c]pyridine-5-carbonyl]-5-(oxan-4-yl)indol-1-yl]-2-methylcyclopropyl]-4H-1,2,4-oxadiazol-5-one]"
5,1.8,"Cc1cc(-n2nc3c(c2-n2ccn(-c4ccc5c(cnn5C)c4F)c2=O)[C@H](C)N(C(=O)c2cc4cc(C5CCOCC5)ccc4n2[C@@]2(c4noc(=O)[nH]4)C[C@@H]2C)CC3)cc(C)c1F [Example 23, 3-[(1S,2S)-1-[2-[(4S)-2-(4-fluoro-3,5-dimethylphenyl)-3-[3-(4-fluoro-1-methylindazol-5-yl)-2-oxoimidazol-1-yl]-4-methyl-6,7-dihydro-4H-pyrazolo[4,3-c]pyridine-5-carbonyl]-5-(oxan-4-yl)indol-1-yl]-2-methylcyclopropyl]-4H-1,2,4-oxadiazol-5-one]"
6,0.77,"Cc1cc(-n2nc3c(c2-n2ccn(-c4ccc5c(cnn5CCF)c4)c2=O)[C@H](C)N(C(=O)c2cc4cc(C5CCOCC5)ccc4n2[C@@]2(c4noc(=O)[nH]4)C[C@@H]2C)CC3)cc(C)c1F [Example 26, 3-[(1S,2S)-1-[2-[(4S)-2-(4-fluoro-3,5-dimethylphenyl)-3-[3-[1-(2-fluoroethyl)indazol-5-yl]-2-oxoimidazol-1-yl]-4-methyl-6,7-dihydro-4H-pyrazolo[4,3-c]pyridine-5-carbonyl]-5-(oxan-4-yl)indol-1-yl]-2-methylcyclopropyl]-4H-1,2,4-oxadiazol-5-one]"
7,2.3,"Cc1cc(-n2nc3c(c2-n2ccn(-c4cc5cnn(C)c5cc4F)c2=O)[C@H](C)N(C(=O)c2cc4cc(C5CCOCC5)ccc4n2[C@@]2(c4noc(=O)[nH]4)C[C@@H]2C)CC3)cc(C)c1F [Example 27, 3-[(1S,2S)-1-[2-[(4S)-2-(4-fluoro-3,5-dimethylphenyl)-3-[3-(6-fluoro-1-methylindazol-5-yl)-2-oxoimidazol-1-yl]-4-methyl-6,7-dihydro-4H-pyrazolo[4,3-c]pyridine-5-carbonyl]-5-(oxan-4-yl)indol-1-yl]-2-methylcyclopropyl]-4H-1,2,4-oxadiazol-5-one]"
8,1.9,"Cc1cc(-n2nc3c(c2-n2ccn(-c4ccc5c(cnn5CC(F)(F)F)c4F)c2=O)[C@H](C)N(C(=O)c2cc4cc(C5CCOCC5)ccc4n2[C@@]2(c4noc(=O)[nH]4)C[C@@H]2C)CC3)cc(C)c1F [Example 28, 3-[(1S,2S)-1-[2-[(4S)-2-(4-fluoro-3,5-dimethylphenyl)-3-[3-[4-fluoro-1-(2,2,2-trifluoroethyl)indazol-5-yl]-2-oxoimidazol-1-yl]-4-methyl-6,7-dihydro-4H-pyrazolo[4,3-c]pyridine-5-carbonyl]-5-(oxan-4-yl)indol-1-yl]-2-methylcyclopropyl]-4H-1,2,4-oxadiazol-5-one]"
